Source: patent publication US20160199463A1, “HDAC2 DEFENDS VASCULAR ENDOTHELIUM FROM INJURY” (The Johns Hopkins University, priority 2014, published 2016)

What was measured:
[1] = system: HDAC1A; conditions: cited from earlier work
[2] = system: Arg2; assay: Arg2 protein expression in HAECs (Western blot); format: cell-based, human; conditions: MS275 2 μmol/L; CI994 1 μmol/L; MC1568 0.5 μmol/L; PC34051 100 nmol/L; MGCD0103 1 μmol/L
Experimental: After 48 hrs of HAEC cells transfection, cells were lysed in ice cold RIPA lysis buffer consisting of 20 mM Tris-HCl at pH 7.5, 150 mM NaCl, 1 mM EDTA, 1 mM EGTA, 1% NP40, 1% sodium deoxycholate, 1 mM Na3VO4, 2.5 mM sodium pyrophosphate, 1 mM 3-glycerophosphate, 1 μg/mL leupeptin, and a 1:1000 diluted protease inhibitor cocktail (Sigma). For immunoprecipitation studies, whole cell lysate lysates were centrifuged at 14,000×g and supernatants were precleared by incubation with Protein A/G-agarose beads for 2 h at 4° C. with rocking. Agarose beads were then pelleted by centrifugation at 1,000×g. FLAG-Arg2 in precleared lysates were immunoprecipitated by incubation overnight at 4° C. with rocking following addition of anti-FLAG antibody (10 μl). Immune complexes were eluted in 2×SDS sample buffer by boiling for 5 minutes before loading into SDS-PAGE. Western blotting analysis was performed by transferring the SDS gel onto a PVDF membrane and visualized using secondary antibodies conjugated to alkaline phosphatases.

## Cn1c(/C=C/C(=O)NO)ccc1/C=C/C(=O)c1cccc(F)c1 [MC1658]
[1]
  IC50: 100 nM
[2]
  endothelial Arg2 expression, class-specific HDAC inhibitors: no substantial effects
